As usually defined, the IC50 is the point on the concentration scale where inhibition reaches its midpoint. By inhibition is commonly meant the percentage by which the read-out fell short of the control.

The subject of assay [1] is RAW264.7. Description: Anti-inflammatory activity in mouse RAW264.7 cells assessed as inhibition of LPS-induced thromboxane B2 production incubated for 48 hrs by ELISA method. To be noted: RAW264.7, 48 h. In kind it is functional, cell-based. For orientation: ELISA stands for enzyme-linked immunosorbent assay.
The subject of assay [2] is RAW264.7. Description: Anti-inflammatory activity in mouse RAW264.7 cells assessed as inhibition of LPS-induced prostaglandin E2 production incubated for 48 hrs by ELISA method. In kind it is functional, cell-based. Particulars: RAW264.7, 48 h.
The next assay has as its system MCF7. The assay can be described thus: Cytostatic activity against human MCF7 cells incubated for 6 days by alamar blue reagent based resazurin metabolism assay. In kind it is functional, cell-based. To be noted: MCF7, 144 h. (In general: Resazurin is reduced to fluorescent resorufin, in cell work by metabolically active cells.)
For the next assay, the system named is HT-29. The assay can be described thus: Cytostatic activity against human HT-29 cells incubated for 72 hrs by alamar blue reagent based resazurin metabolism assay. It counts as functional, cell-based. Particulars: HT-29, 72 h.
For assay [3], the system named is RAW264.7. The assay can be described thus: Anti-inflammatory activity in mouse RAW264.7 cells assessed as inhibition of LPS-induced thromboxane B2 production at 10 uM incubated for 48 hrs by ELISA method. Particulars: RAW264.7, 48 h. In kind it is functional.
Assay [4] relates to RAW264.7. The assay can be described thus: Anti-inflammatory activity in mouse RAW264.7 cells assessed as inhibition of LPS-induced prostaglandin E2 production at 10 uM incubated for 48 hrs by ELISA method. It counts as functional. Particulars: RAW264.7, 48 h.

On to `C=C1C(=O)O[C@@H]2C[C@](C)(O)C3=CC[C@@](C)(O)[C@@H]3C[C@H]12`, for which the IC50 with RAW264.7 [1] is 37.5 µM; in the assay with RAW264.7 [2], 21.2 µM.
As to `C=C1C(=O)O[C@@H]2C[C@H](C)C3=CC[C@@](C)(O)[C@@H]3C[C@H]12`, the IC50 in the assay with MCF7 worked out at 24.2 µM; in the assay on HT-29, 28.2 µM; with RAW264.7 [1], 17.7 µM; with RAW264.7 [2], 6.5 µM.
The like results for `C=C1C(=O)O[C@@H]2C[C@H](C)[C@]34O[C@H]3C[C@@](C)(O)[C@@H]4C[C@H]12` were, in that order, 12.1 µM, 18.6 µM, 11.7 µM and 3 µM.
The like results for `C=C1C(=O)O[C@@H]2C[C@H](C)[C@]34O[C@H]3C[C@@](C)(OC(C)=O)[C@@H]4C[C@H]12` were, in that order, 6.9 µM, 14.1 µM, 6.5 µM and 0.7 µM.
On to `C=C1C(=O)O[C@@H]2C[C@H](C)[C@]3(O)[C@@H](C[C@H]12)[C@](C)(OC(C)=O)C[C@@H]3O`, for which the IC50 was 27.2 µM in the assay on MCF7, 29.3 µM in the assay with HT-29, 34.6 µM in the assay with RAW264.7 [1] and 10.5 µM in the assay on RAW264.7 [2].
For `C=C1C(=O)O[C@@H]2C[C@H](C)[C@]34O[C@](C)(C[C@@H]3OC(C)=O)[C@@H]4C[C@H]12`, the half-inhibitory concentration (IC50) with MCF7 was above 65 µM; with HT-29 it was above 65 µM; in the assay with RAW264.7 [1], 38.6 µM; with RAW264.7 [2] it was 16.3 µM.
As to `C=C1C(=O)O[C@@H]2CC(C)=C3CC[C@@](C)(O)[C@@H]3C[C@H]12`, the IC50 was 13.7 µM in the assay with MCF7, 18.1 µM in the assay with HT-29, 12.9 µM with RAW264.7 [1] and 3.2 µM in the assay on RAW264.7 [2].
The like results for `C=C1C(=O)O[C@@H]2CC(C)=C3CC[C@@](C)(OC(C)=O)[C@@H]3C[C@H]12` were, in that order, 8 µM, 4.8 µM, 2.6 µM and 3.5 µM.
The like results for `C=C(CO)[C@@H]1CCC(C)=C([C@H](C)CCC(=O)O)C1` were, in that order, above 79 µM, above 79 µM, above 79 µM and above 79 µM.
Take `C[C@]12CCC(=O)C=C1CC[C@@H]1[C@@H]2[C@@H](O)C[C@@]2(C)[C@H]1CC[C@]2(O)C(=O)CO` [HYDROCORTISONE]: the inhibition at 10 µM with RAW264.7 [3] came out at 42%; in the assay on RAW264.7 [4], 21%.
On to `C=C1C(=O)O[C@@H]2C[C@H](C)C(CCC(C)=O)=CC[C@H]12` [TOMENTOSIN], for which the IC50 came to 26.6 µM with MCF7, 56.5 µM in the assay on HT-29, 15.7 µM in the assay on RAW264.7 [1] and 7.3 µM with RAW264.7 [2].

Source of the values: ChEMBL document CHEMBL3593199, “Guaianolides and a seco-Eudesmane from the Resinous Exudates of Cushion Bush (Leucophyta brownii) and Evaluation of Their Cytostatic and Anti-inflammatory Activity” (J Nat Prod, 2015).
